Measurements published in patent US7763604B2, “Methods for administration of a farnesyl dibenzodiazepinone” (Thallion Pharma Ceuticals, Inc., priority 2005, dated 2010).

Columns and labels:
[1] = population pharmacokinetic analysis, mouse (IV); format: in vivo; conditions: population PK
Method: (§1) An analysis was performed to derive allometric equations for Formula I pharmacokinetic parameters using Formula I plasma concentration-time data from three species, including mouse, rat, and monkey, and to estimate human pharmacokinetic parameters from those allometric equations.
(§2) Plasma concentrations of Formula I were obtained from mice, rats, and monkeys following intravenous injection or continuous infusion. Formula I pharmacokinetic parameters in mice, rats, and monkeys were estimated using population pharmacokinetic analysis, a function of the software program NONMEM™ (version 5). Typical population pharmacokinetic parameters for Formula I in humans were extrapolated from allometric equations that were derived from pharmacokinetic parameters estimated in the three animal species.
(§3) A two-compartment model with a first-order elimination from the central compartment adequately described Formula I plasma concentration-time profiles following intravenous bolus injection (30 mg/kg) in mice and rats, 7-day continuous infusion in rats (50 to 170 mg/kg/day), and 14-day continuous infusion in monkeys (5 to 30 mg/kg/day).

[2] = system: rat glioma (C6) tumor xenograft; assay: rat C6 glioblastoma subcutaneous tumor model, antitumor efficacy; format: in vivo, female athymic (nu/nu) nude mice
Method: The rat C6 glioblastoma antitumor efficacy study was performed at INSERM U318 (Grenoble, France). The rat C6 glioblastoma subcutaneous tumor model is based on the use of a rat C6 cell line obtained from a rat glial tumor induced by N-nitrosomethylurea (Benda et al. (1968), Science, vol 161, 370-371). These animal studies were done according to ethical guidelines of animal experimentation (Charte du comité d'éthique du CNRS, 2003) and the English “Guidelines for the welfare of animals in experimental neoplasia (Second Edition)” from the United Kingdom Coordinating Committee on Cancer Research (UKCCCR) (Workman et al. (1998), Br. J. Cancer, vol 77, no 1, 1-10). On each dosing day, Formula I stock solutions (24 and 40 mg/mL in 20% ethanol, 20% PEG-400 and 60% Tween 80) were diluted with sterile 5% dextrose in water (D5W) to prepare dosing solutions of 6 mg/mL and 10 mg/mL of Formula I in a vehicle consisting of 5% ethanol, 5% PEG-400, 15% Tween-80, and 75% D5W.
For the rat glioma antitumor efficacy study, female athymic (nu/nu) nude mice (6-7 weeks of age) were inoculated SC with 5×10^6 C6 cells (day 0). Tumor bearing animals were randomized (10 per group) when tumors were palpable (day 6). Group 1 (control group) received drug-free vehicle (5% ethanol, 5% PEG-400, 15% Tween-80, and 75% D5W) IP (5 mL/kg), once daily on days 6-18 (q1d×13). Group 2 received Formula I (6 mg/mL) IP at 20 mg/kg, once daily on days 6 to 13 and then at 10 mg/kg once daily on days 14 to 18. Group 3 received Formula I (6 mg/mL) SC at 30 mg/kg, once daily on days 6 to 13 and then at 15 mg/kg once daily on days 14 to 18. Group 4 received Formula I (10 mg/mL) IV at 100 mg/kg q1d×5 for 2 weeks. Each animal was euthanized when its tumor reached the predetermined endpoint size (˜2,500 mm^3) or at the end of the study (D18). Treatment period was over 13 days, from day 6 to day 18, post tumor cell inoculation. Tumor growth inhibition (TGI) was calculated on day 16 post tumor cell inoculation, at which time some animals from the vehicle control group had to be sacrificed due to tumor burden.
In this model and the models of Examples 3, 6 and 7, tumor growth was followed every other day by measuring tumor length (L) and width (W) using a calliper. Measurements were converted to tumor volumes (TV; mm^3) using the standard formula, TV=(L×W^2)/2. Tumor volume at day n was expressed as relative tumor volume (RTV) according to the following formula RTV=TVn/TV0, where TVn is the tumor volume at day n and TV0 is the tumor volume at day 0. The percentage of tumor growth inhibition (% TGI) was determined by 1−(mean RTV of treated group/mean RTV of control group)×100. […] Statistical analysis was calculated by the two-tailed unpaired t test using the Prism software. […]

[3] = acute toxicity, 24-hour CIV administration in monkeys; format: in vivo
[4] = population pharmacokinetic analysis, monkey (CIV); format: in vivo; set-up: mean clearance: unit not given here; conditions: for mean clearance: monkeys, 14-day continuous infusion
Method: as §1, §2, §3
Application of a two-compartment model with Michaelis-Menten elimination better described the concentration data in monkeys than the linear model. Because the target concentration in humans is 2 μM, at which linear pharmacokinetics is assumed, all simulations for human plasma concentrations were performed based on a two-compartment model with linear first-order elimination.

[5] = pharmacokinetics of 14-day CIV infusion in monkeys; format: in vivo, Cynomolgus monkeys; conditions: for T1/2z: calculated at the end of treatment, mean
Method: Cynomolgus monkeys received continuous IV infusion over 14 days of Formula I at 5 mg/kg/day, 15 mg/kg/day, or 30 mg/kg/day. The drug was infused intravenously (24 hours/day) into the femoral vein at a dose rate of 2 ml/kg/hour for 14 consecutive days. Blood samples were removed from each monkey on Days 1, 2, 6, 10, and 15 of the treatment period. Monkeys were bled by venipuncture and samples were collected into tubes containing K2EDTA. On Day 1, samples were collected at 2, 6, and 12 hours after initiation of treatment. Additional samples were collected at 30 hours after the start of infusion (Day 2). On Days 6 and 10, samples were collected at approximately 6 hours after the bag changes. At the end of the 14 days of infusion, on Day 15, samples were collected at 1 hour prior to cessation of dose administration, and at 5 min, 30 min, 1 h, 2 h, 4 h, 8 h, and 24 h following cessation of dose administration.

[6] = human pharmacokinetic parameters extrapolated from allometric equations; conditions: estimated from allometric equations
Method: as §1, §2
Allometric equations for the pharmacokinetic parameters clearance (CL), volume of distribution (V1 and V2), and inter-compartmental clearance (Q) were derived. The population PK parameters of the compound of Formula I for humans were extrapolated from the allometric equations, and the estimated values are shown in Table 6. Simulated Formula I plasma concentration-time profiles in humans are shown in FIG. 13 and estimated end of infusion concentrations are provided in Table 7.

With `CC(C)=CCC/C(C)=C/CC/C(C)=C/CN1C(=O)c2cccc(O)c2Nc2c(O)cc(O)cc21` [Formula I, 10-farnesyl-4,6,8-trihydroxy-dibenzodiazepin-11-one] the Ke [1] was 8.466 h⁻¹, the “Maximum body weight loss” value ([2]; IP 20 mg/kg (Q1D×8) followed by 10 mg/kg (Q1D×7), Day 13) was 15% and the “tumor volume relative to the vehicle control” value ([2]; IV bolus 100 mg/kg (Q1D×5) over 2 weeks) was “No significant difference in tumor volume”. The body weight loss ([2]; IV group, 100 mg/kg (Q1D×5) over 2 weeks) was “No significant body weight loss”, the “Maximum body weight loss” value ([2]; SC 30 mg/kg (Q1D×8) followed by 15 mg/kg (Q1D×7)) was 11% and the tolerability ([3]; 35 mg/kg) was “well tolerated”. The tolerability ([3]; 70 mg/kg) was “well tolerated”, the Ke ([4]; Monkey (CIV), population PK) was 2.172 h⁻¹ and the mean clearance ([4]; 5 mg/kg/day) was 0.63. For the same compound, the mean clearance ([4]; 15 mg/kg/day) was 0.57, the mean clearance ([4]; 30 mg/kg/day) was 0.23 and the “fold increase in AUC between groups” value ([5]; 15 mg/kg/day versus 5 mg/kg/day) was 3.4 fold. The “fold increase in AUC between groups” value ([5]; 30 mg/kg/day versus 15 mg/kg/day) was 4.7 fold, the T1/2z ([5]; CIV 5 mg/kg/day) was 12 h and the T1/2z ([5]; CIV 15 mg/kg/day) was 8.3 h. The T1/2z ([5]; CIV 30 mg/kg/day) was 8.1 h, the concentration at 14 days ([5]; cynomolgus monkey, plasma, 14-day IV continuous infusion, read-out: stable plasma concentrations above the therapeutic threshold) was greater than 2000 nM and the Ke [6] was 1.192 h⁻¹. The Q [6] was 0.032 L/h/kg, the “t1/2,α” value [6] was 30.5 min and the “t1/2,β” value [6] was 13.8 h.
